Assay results taken from PubChem BioAssay AID624408 (The Scripps Research Institute Molecular Screening Center, 2012).
Calls of active or inactive are those of the source.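 How the source made its calls: active means IC50 at or below 10 µM; inactive means IC50 above 10 µM.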

Tested on: parental CHO-K1, ATP-induced calcium, Fluo-8 fluorescence
Assay: nonselective Gq inhibitors in untransfected CHO cells – cell-based, fluorescence, dose response, artefact control for OX1R antagonist project, late-stage follow-up (AID 624408)

**Q.** With COc1cc(OC)c(-c2nc3ccccc3s2)cc1OC as the molecule, how does the IC50 read?
**A.** > 59.6 µM (inactive)

**Q.** For Cc1noc(C)c1COc1ccc(C(=O)OCC(=O)N2CC(=O)Nc3ccccc32)cc1, which IC50 is on record?
**A.** > 59.6 µM (inactive)

**Q.** Which IC50 does the source give for CCOc1ccccc1C(=O)Nc1ccc2nc3n(c(=O)c2c1)CCCCC3 here?
**A.** > 59.6 µM (inactive)

**Q.** How did the IC50 turn out when Fc1cccc(Nc2nc3ccccc3n3cnnc23)c1 was run?
**A.** > 59.6 µM (inactive)

**Q.** COc1cccc(/C=C2/Oc3ccccc3N(CC(=O)NCC3CCCO3)C2=O)c1 (stereo unspecified) was tested. Which IC50 did it give?
**A.** > 59.6 µM (inactive)

**Q.** For CCSC1=C(C#N)C(c2ccccc2Cl)C(C(=O)c2cccs2)C(O)(C(F)(F)F)N1 (stereo unspecified), which IC50 is on record?
**A.** 21.8 µM (inactive)

**Q.** For Cc1ccccc1NC(=O)C1CCCN1S(=O)(=O)c1ccccc1C(F)(F)F (stereo unspecified), which IC50 is on record?
**A.** > 59.6 µM (inactive)

**Q.** How did the IC50 turn out when CN(N=Cc1cc([N+](=O)[O-])ccc1O)c1ccccc1 was run?
**A.** > 59.6 µM (inactive)

**Q.** For CCOC(=O)N1CCN(C(=O)CSc2ccc(-c3ccccc3)nn2)CC1, which IC50 is on record?
**A.** > 59.6 µM (inactive)

**Q.** With CCN(CC)c1ccc(NC(=O)Cn2c(C(C)NC(=O)c3ccccc3)nc3ccccc32)cc1 (stereo unspecified) as the molecule, how does the IC50 read?
**A.** > 59.6 µM (inactive)

**Q.** Which IC50 does the source give for O=C(CSc1ccc(-c2ccccc2)nn1)c1cccs1 here?
**A.** > 59.6 µM (inactive)

**Q.** With O=C(CN1C(=O)/C(=C\c2cccc(Br)c2)Oc2ccccc21)NCC1CCCO1 (stereo unspecified) as the molecule, how does the IC50 read?
**A.** > 59.6 µM (inactive)

**Q.** With Cc1c(NS(=O)(=O)c2cccc(C(=O)OCC(=O)N(C)C3CCCCC3)c2)c(=O)n(-c2ccccc2)n1C as the molecule, how does the IC50 read?
**A.** > 59.6 µM (inactive)

**Q.** For Cc1ccc(-c2csc3nnc(SCC(=O)Nc4nsc(-c5ccccc5)n4)n23)cc1, which IC50 is on record?
**A.** > 59.6 µM (inactive)

**Q.** Cc1cccc(NC(=O)[C@@H]2CCCN2S(=O)(=O)c2ccc(Cl)cc2)c1 was tested. Which IC50 did it give?
**A.** > 59.6 µM (inactive)

**Q.** O=c1cc(CN2CC(O)Cc3ccc4ccccc4c32)nc2sccn12 (stereo unspecified) was tested. Which IC50 did it give?
**A.** 55.4 µM (inactive)

**Q.** For Cc1cccc(C=NNC(=O)c2cc3c(s2)-c2ccccc2CC3)c1, which IC50 is on record?
**A.** > 59.6 µM (inactive)

**Q.** For CCc1cc2c(SCC(=O)N(CC)c3c(N)n(Cc4ccccc4)c(=O)[nH]c3=O)ncnc2s1, which IC50 is on record?
**A.** > 59.6 µM (inactive)

**Q.** Which IC50 does the source give for CSc1cccc(N2CC(C(=O)NCCN3C(=O)S/C(=C\c4cccnc4)C3=O)CC2=O)c1 (stereo unspecified) here?
**A.** > 59.6 µM (inactive)

**Q.** With COCCCNC(=O)CCC(=O)NNc1nc2ccccc2c2nc(-c3ccccc3)nn12 as the molecule, how does the IC50 read?
**A.** > 59.6 µM (inactive)

**Q.** CC(=C/c1ccccc1)/C=C1/SC(N2CCOCC2)=NC1=O was tested. Which IC50 did it give?
**A.** 52.1 µM (inactive)

**Q.** For Cc1cc(Cl)ccc1OCCCC(=O)NCCN1C(=O)S/C(=C\c2cccnc2)C1=O, which IC50 is on record?
**A.** 7.22 µM

**Q.** How did the IC50 turn out when CCn1c(SCC(=O)Nc2ccc3c(c2)c2ccccc2n3CC)nnc1-c1cnccn1 was run?
**A.** > 59.6 µM (inactive)

**Q.** How did the IC50 turn out when CCc1cc(C(=O)OCC(=O)N2CCC(c3ccccc3)=N2)sc1C was run?
**A.** > 59.6 µM (inactive)

**Q.** COc1ccc(OC)c(S(=O)(=O)NCC(c2ccco2)N2CCc3ccccc32)c1 (stereo unspecified) was tested. Which IC50 did it give?
**A.** > 59.6 µM (inactive)

**Q.** How did the IC50 turn out when CSc1cccc(NC(=O)C2CCCN2S(=O)(=O)c2ccc(Br)s2)c1 (stereo unspecified) was run?
**A.** 20.4 µM (inactive)
